Source: publication PMC10566733 (PLOS ONE, 2023)
Where “and” joins values, the source holds several entries; their conditions need not be identical. Equal values may be shown once. Residues, ends and D or L forms follow the SMILES beside them. *: point of attachment. FITC = O=C1OC2(c3ccc(O)cc3Oc3cc(O)ccc32)c2ccc(NC(=S)*)cc21

Test system: monolayer of bEnd.3 mouse brain endothelial cells
Experiment: Permeability across a monolayer of brain endothelial cells (in vitro BBB model)
Format: in vitro ADME
Design: Diffusion of FITC-TAT across bEnd.3 monolayer / Diffusion of FITC-linked peptide across bEnd.3 monolayer / Diffusion of FITC-TAT across bEnd.3 monolayer, FITC-TAT + TAT / Diffusion of FITC-TAT across bEnd.3 monolayer, FITC-TAT + TATK/R>A: unit not given here
Conditions: for Rate of diffusion across the monolayer compared with FITC-TAT: bEnd.3 monolayer; for Diffusion of FITC-linked peptide across bEnd.3 monolayer: fluorescence spectrophotometry
[1] = peptide 1 μM (Fig 3A), diffusion time 0.1 h, individual cultures n = 4
[2] = peptide 1 μM (Fig 3A), diffusion time 4 h, individual cultures n = 4
[3] = peptide 1 μM (Fig 3A), diffusion time 12 h, individual cultures n = 4
[4] = peptide 1 μM (Fig 3A), diffusion time 24 h, individual cultures n = 4
[5] = peptide 3 μM (Fig 3B), diffusion time 0.1 h, individual cultures n = 4
[6] = peptide 3 μM (Fig 3B), diffusion time 4 h, individual cultures n = 4
[7] = peptide 3 μM (Fig 3B), diffusion time 12 h, individual cultures n = 4
[8] = peptide 3 μM (Fig 3B), diffusion time 24 h, individual cultures n = 4
[9] = peptide 10 μM (Fig 3C), diffusion time 0.1 h, individual cultures n = 4
[10] = peptide 10 μM (Fig 3C), diffusion time 4 h, individual cultures n = 4
[11] = peptide 10 μM (Fig 3C), diffusion time 12 h, individual cultures n = 4
[12] = peptide 10 μM (Fig 3C), diffusion time 24 h, individual cultures n = 4

Procedure: The bEnd.3 (mouse brain endothelial cell) cell line, purchased from Bioresource Collection and Research Center (BCRC, Taiwan), was used in this study. Prior to experiments, the cells were cultured in Dulbecco’s modified Eagle’s medium (DMEM; HyClone, cat. #SH30003.02) with 10% fetal bovine serum (Gibco, cat. #10437028) and 1% penicillin-streptomycin (Gibco, cat. #15140112), and were passaged every 2–3 days with 0.25% trypsin-EDTA (Gibco, cat. #25200056).
Briefly, the cells were seeded onto 24-well culture inserts (Falcon Permeable Support for 24-well plate; cat. #353104), and one-half of the medium was replaced every other day, and the cells were cultured for 5 days prior to the performance of a permeability assay. On the day of the assay, the culture medium was replaced with serum-free DMEM with FITC-linked peptides or bovine serum albumin (Sigma).

Compound | Rate of diffusion across the monolayer compared with FITC-TAT (1 μM concentration, Fig 3A) | Rate of diffusion across the monolayer compared with FITC-TAT (3 μM concentration, Fig 3B) | Rate of diffusion across the monolayer compared with FITC-TAT (10 μM concentration, Fig 3C) | Diffusion of FITC-linked peptide across bEnd.3 monolayer [1] | Diffusion of FITC-linked peptide across bEnd.3 monolayer [2] | Diffusion of FITC-linked peptide across bEnd.3 monolayer [3] | Diffusion of FITC-linked peptide across bEnd.3 monolayer [4] | Diffusion of FITC-linked peptide across bEnd.3 monolayer [5] | Diffusion of FITC-linked peptide across bEnd.3 monolayer [6] | Diffusion of FITC-linked peptide across bEnd.3 monolayer [7] | Diffusion of FITC-linked peptide across bEnd.3 monolayer [8] | Diffusion of FITC-linked peptide across bEnd.3 monolayer [9] | Diffusion of FITC-linked peptide across bEnd.3 monolayer [10] | Diffusion of FITC-linked peptide across bEnd.3 monolayer [11] | Diffusion of FITC-linked peptide across bEnd.3 monolayer [12] | Diffusion of FITC-linked peptide across bEnd.3 monolayer (peptide 10 μM alone (Fig 3D), diffusion time 0.1 h, individual cultures n = 3) | Diffusion of FITC-linked peptide across bEnd.3 monolayer (peptide 10 μM alone (Fig 3D), diffusion time 12 h, individual cultures n = 3) | Diffusion of FITC-linked peptide across bEnd.3 monolayer (peptide 10 μM alone (Fig 3D), diffusion time 24 h, individual cultures n = 3)
C[C@H](NC(=O)[C@H](C)NC(=O)[C@H](C)NC(=O)[C@H](CCC(N)=O)NC(=O)[C@H](C)NC(=O)[C@H](C)NC(=O)[C@H](C)NC(=O)[C@H](C)NC(=O)[C@H](C)NC(=O)CNC(=O)[C@H](Cc1ccc(O)cc1)NC(=S)Nc1ccc2c(c1)C(=O)OC21c2ccc(O)cc2Oc2cc(O)ccc21)C(=O)O [FITC-TATK/R>A] ({FITC}-YGAAAAAQAAA-OH) | much lower rate than FITC-TAT | much lower rate than FITC-TAT | much lower rate than FITC-TAT | 16.9505 and 16.508 and 16.5507 and 15.9581 | 28.9506 and 32.0869 and 31.9736 and 31.2514 | 42.2787 and 47.1236 and 45.2026 and 46.9823 | 65.8175 and 68.5893 and 66.6226 and 69.1937 | 6.156 and 4.865 and 2.668 and 3.238 | 19.8822 and 11.958 and 7.983 and 9.049 | 39.1651 and 26.1724 and 19.7108 and 16.4957 | 49.6596 and 34.462 and 23.6779 and 22.9503 | 1.811 and 1.623 and 2.572 and 1.851 | 18.7947 and 19.4252 and 20.5729 and 16.0903 | 38.7338 and 38.9661 and 39.2385 and 32.797 | 65.0223 and 61.702 and 66.1075 and 57.2466 | 2.221 and 2.035 and 1.973 | 29.1435 and 26.4948 and 29.3071 | 54.4105 and 51.9054 and 56.2316
N=C(N)NCCC[C@H](NC(=O)[C@H](CCCNC(=N)N)NC(=O)[C@H](CCCCN)NC(=O)[C@H](Cc1ccc(O)cc1)NC(=O)[C@H](CCCNC(=N)N)NC(=O)[C@H](CCCNC(=N)N)NC(=O)[C@H](CCCNC(=N)N)NC(=O)[C@H](CCCNC(=N)N)NC(=O)[C@H](CCCCN)NC(=S)Nc1ccc2c(c1)C(=O)OC21c2ccc(O)cc2Oc2cc(O)ccc21)C(=O)N[C@@H](CCC(N)=O)C(=O)NCC(=O)O [FITC-TATscrambled] ({FITC}-KRRRRYKRRQG-OH) | marginally higher rate than FITC-TAT | rate equal to that of FITC-TAT | marginally lower than FITC-TAT | 16.6121 and 16.5353 and 16.6054 and 15.9771 | 37.5047 and 37.4667 and 38.2192 and 36.5367 | 71.5027 and 70.7894 and 73.1753 and 67.019 | 112.675 and 114.406 and 111.607 and 110.916 | 5.913 and 5.203 | 27.0594 (2×) and 32.066 and 20.6139 | 76.2224 (2×) and 56.9939 and 73.6994 | 111.452 (2×) and 91.4132 and 89.6289 | 1.995 and 1.727 and 1.576 and 1.501 | 22.9531 and 16.5248 and 15.9626 and 15.9604 | 52.8508 and 41.023 and 42.3549 and 44.9043 | 105.008 and 91.7182 and 94.732 and 94.0226 |  |  | 
